The results in this text go back to patent US11584733B2, “Selective histone deacetylase inhibitors for the treatment of human disease” (Shuttle Pharmaceuticals, Inc., priority 2017, dated 2023).

Structures are written as SMILES.

What is called EC50 is the concentration that produces a half-maximal response.

The target of this assay is T1, Human recombinant HDAC6 (Homo sapiens, UniProt Q9UBN7).
T1 sequence (Q9UBN7 1-1215): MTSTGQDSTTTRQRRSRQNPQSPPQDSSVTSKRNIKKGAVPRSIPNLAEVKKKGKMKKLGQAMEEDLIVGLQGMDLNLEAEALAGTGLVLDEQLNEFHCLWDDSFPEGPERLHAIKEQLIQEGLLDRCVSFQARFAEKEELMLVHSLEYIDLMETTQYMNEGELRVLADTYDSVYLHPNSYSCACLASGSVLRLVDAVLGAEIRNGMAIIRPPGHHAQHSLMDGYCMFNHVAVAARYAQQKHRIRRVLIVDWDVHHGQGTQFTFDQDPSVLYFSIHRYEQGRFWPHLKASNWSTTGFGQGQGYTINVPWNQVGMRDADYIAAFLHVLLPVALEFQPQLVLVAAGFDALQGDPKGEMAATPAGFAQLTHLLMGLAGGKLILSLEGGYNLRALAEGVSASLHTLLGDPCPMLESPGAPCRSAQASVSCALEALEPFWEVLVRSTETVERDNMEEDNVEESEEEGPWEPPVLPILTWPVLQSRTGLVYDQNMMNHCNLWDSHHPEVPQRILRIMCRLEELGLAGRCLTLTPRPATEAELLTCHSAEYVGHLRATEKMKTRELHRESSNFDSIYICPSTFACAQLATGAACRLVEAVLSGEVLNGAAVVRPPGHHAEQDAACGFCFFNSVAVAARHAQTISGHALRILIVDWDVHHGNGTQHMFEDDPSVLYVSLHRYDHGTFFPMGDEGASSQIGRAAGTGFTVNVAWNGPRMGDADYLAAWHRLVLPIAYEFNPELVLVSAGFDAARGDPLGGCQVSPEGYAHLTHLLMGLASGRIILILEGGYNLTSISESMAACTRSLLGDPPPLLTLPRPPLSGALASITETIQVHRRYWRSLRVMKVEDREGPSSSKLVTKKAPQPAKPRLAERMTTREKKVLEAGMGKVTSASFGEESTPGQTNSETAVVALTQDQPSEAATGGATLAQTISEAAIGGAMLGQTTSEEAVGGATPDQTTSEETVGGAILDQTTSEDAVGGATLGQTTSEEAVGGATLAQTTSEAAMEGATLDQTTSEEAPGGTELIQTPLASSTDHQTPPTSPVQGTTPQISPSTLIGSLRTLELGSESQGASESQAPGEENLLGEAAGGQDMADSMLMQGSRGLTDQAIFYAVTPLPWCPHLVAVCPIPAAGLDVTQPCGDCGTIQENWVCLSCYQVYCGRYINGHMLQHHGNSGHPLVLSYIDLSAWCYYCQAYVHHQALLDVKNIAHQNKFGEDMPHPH
As to the kind of experiment: HDAC isomer assay, Fluor-de-Lys, HDAC6. In kind it is biochemical. The note with it: proof of concept; FIGS. 11 and 12; read-out: EC50 against HDAC6. On the procedure: The HDAC isomer (HDAC1, 3, and 6) assays were performed as follows:
Materials: Human recombinant HDAC isomer (HDAC1, HDAC3, and HDAC6); Fluor-de-Lys HDAC substrates; 360 nm excitation 460 nm emission Plate Reader; Disposable pipettes; Pipet-aid; Pipette tips; Micro-pipetter; DMSO; Sterile micro-tubes and conical tubes; and Micro-centrifuge.
Test compounds and control preparation: All test compounds' stock solutions were made in 100% DMSO. Test compound dilutions were made in HDAC Assay buffer with a final concentration of DMSO less than or equal to 1%. Vehicle control was HDAC Assay buffer with 1% DMSO.
The reagents for the assay were prepared as follows:
1. All kit components were defrosted and these, and all dilutions described below, were kept on ice until use.
2. A sufficient amount of HDAC source diluted in Assay Buffer (BML-KI143) was prepared to provide for the assays that were performed (# of wells×15 μl). A 30-fold dilution of the HeLa Extract means that 15p L contains 0.5 μl of the undiluted Extract, an appropriate amount to use per well.
3. Dilution(s) of SAHA and/or Test Inhibitors were prepared in Assay Buffer (BML-KI143). Since 10 μl were used per well, and since the final volume of the HDAC reaction was 50p, these inhibitor dilutions were 5× their final concentration.
4. Dilution(s) of the Fluor de Lys® Substrate (BML-KI104; 50 mM) were prepared in Assay Buffer (BML-KI143) that were 2× the desired final concentration(s). For inhibitor screening, substrate concentrations at or below the Km are recommended. Twenty-five μL were used per well. […] Rapid mixing and dilution into room temperature buffer helped to prevent precipitation at high substrate concentration.
5. Shortly before use (<30 min.), sufficient Fluor de Lys® Developer was prepared for the assays to be performed (50 μl per well). First, the Fluor de Lys® Developer Concentrate was diluted 20-fold (e.g. 50 μl plus 950 μl Assay Buffer) in cold Assay Buffer (BML-K1143). […] The addition of SAHA to the Developer insures that HDAC activity stops when the Developer is added. The Developer was kept on ice until use.
1. Assay buffer, diluted trichostatin A or test inhibitor was added to appropriate wells of the microtiter plate.
2. Diluted HeLa extract or other HDAC sample was added to all wells except those that are to be “No Enzyme Controls.”
3. Diluted Fluor de Lys® Substrate and the samples in the microtiter plate were allowed to equilibrate to assay temperature (e.g. 25 or 37° C.).
4. HDAC reactions were initiated by adding diluted substrate (25 μl) to each well and mixing thoroughly.
5. HDAC reactions were allowed to proceed for desired length of time and then stop them by addition of Fluor de Lys® Developer (50 μl). The plates were incubated at room temperature (25° C.) for 10-15 min.
6. Samples were read in a microtiter-plate reading fluorimeter capable of excitation at a wavelength in the range 350-380 nm and detection of emitted light in the range 440-460 nm.

`Nc1cccc2c1CN(C1CCC(=O)NC1=O)C2=O` (centres unmarked) [lenalidomide, reference compound]: the concentration for a half-maximal effect (EC50) is above 25 µM.

As to `O=C1CCCC(=O)N1` [glutaramide, glutarimide, reference compound], the EC50 is above 25 µM.
